Columns and labels:
[1] = target: Tyrosine-protein kinase HCK (Homo sapiens) (UniProt P08631); experiment: Inhibition of human HCK catalytic domain expressed in baculovirus assessed as substrate phosphorylation using fluorescence-labelled peptides as substrate at 0.06 uM after 90 mins by microfluidic peptide phosphorylation assay
[2] = target: Insulin receptor (Homo sapiens) (UniProt P06213); experiment: Inhibition of human INSR catalytic domain expressed in baculovirus assessed as substrate phosphorylation using fluorescence-labelled peptides as substrate at 420 uM after 90 mins by microfluidic peptide phosphorylation assay
[3] = target: Serine/threonine-protein kinase PAK 2 (Homo sapiens) (UniProt Q13177); experiment: Inhibition of human truncated PAK2 expressed in Escherichia coli cell assessed as substrate phosphorylation using fluorescence-labelled peptides as substrate at […] after 90 mins by microfluidic peptide phosphorylation assay
Serine/threonine-protein kinase PAK 2 (Homo sapiens), sequence (Q13177 whole entry, the tested form may be a part): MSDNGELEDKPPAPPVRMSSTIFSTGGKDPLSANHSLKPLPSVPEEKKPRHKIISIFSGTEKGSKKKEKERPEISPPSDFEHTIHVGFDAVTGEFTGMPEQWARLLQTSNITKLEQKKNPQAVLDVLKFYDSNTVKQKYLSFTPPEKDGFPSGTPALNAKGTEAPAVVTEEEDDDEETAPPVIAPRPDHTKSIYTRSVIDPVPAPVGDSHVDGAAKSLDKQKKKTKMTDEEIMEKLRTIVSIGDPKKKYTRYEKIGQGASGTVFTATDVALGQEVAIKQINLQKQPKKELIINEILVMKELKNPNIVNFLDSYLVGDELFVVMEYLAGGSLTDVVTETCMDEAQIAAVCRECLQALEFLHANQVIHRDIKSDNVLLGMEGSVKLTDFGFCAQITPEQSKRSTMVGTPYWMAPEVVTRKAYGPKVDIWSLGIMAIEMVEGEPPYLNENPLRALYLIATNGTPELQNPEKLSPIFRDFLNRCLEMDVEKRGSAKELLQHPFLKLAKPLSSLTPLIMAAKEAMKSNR

[4] = target: Ribosomal protein S6 kinase alpha-5 (Homo sapiens) (UniProt O75582); experiment: Inhibition of human full length MSK1 expressed in baculovirus assessed as substrate phosphorylation using fluorescence-labelled peptides as substrate at […] after 90 mins by microfluidic peptide phosphorylation assay
[5] = target: Tyrosine-protein kinase BTK (Homo sapiens) (UniProt Q06187); settings: 0.1 uM
Tyrosine-protein kinase BTK (Homo sapiens), sequence (Q06187 whole entry): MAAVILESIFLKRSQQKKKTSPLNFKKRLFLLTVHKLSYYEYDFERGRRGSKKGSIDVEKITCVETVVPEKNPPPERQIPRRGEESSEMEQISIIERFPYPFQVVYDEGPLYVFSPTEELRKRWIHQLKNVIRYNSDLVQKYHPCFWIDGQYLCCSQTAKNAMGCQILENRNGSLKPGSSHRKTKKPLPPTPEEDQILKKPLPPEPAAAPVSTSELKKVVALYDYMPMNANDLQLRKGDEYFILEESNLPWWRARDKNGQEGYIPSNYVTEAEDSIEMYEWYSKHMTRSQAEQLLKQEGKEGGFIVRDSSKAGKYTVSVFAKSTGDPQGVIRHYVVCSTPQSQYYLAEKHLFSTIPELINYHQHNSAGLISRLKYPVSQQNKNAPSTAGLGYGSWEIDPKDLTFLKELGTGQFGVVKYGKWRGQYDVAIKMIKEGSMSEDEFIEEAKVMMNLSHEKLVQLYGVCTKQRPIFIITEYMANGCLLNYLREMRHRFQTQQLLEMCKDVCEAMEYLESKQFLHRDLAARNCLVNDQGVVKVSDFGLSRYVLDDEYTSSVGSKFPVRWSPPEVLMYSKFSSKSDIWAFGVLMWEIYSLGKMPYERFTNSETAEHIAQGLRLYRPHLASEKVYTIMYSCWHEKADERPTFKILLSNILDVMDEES
Description: Inhibition of human full length BTK expressed in baculovirus assessed as substrate phosphorylation using fluorescence-labelled peptides as substrate at 0.1 uM after 90 mins by microfluidic peptide phosphorylation assay

[6] = target: Calcium/calmodulin-dependent protein kinase type II subunit beta (Homo sapiens) (UniProt Q13554); settings: 0.1 uM
Calcium/calmodulin-dependent protein kinase type II subunit beta (Homo sapiens), sequence (Q13554 whole entry): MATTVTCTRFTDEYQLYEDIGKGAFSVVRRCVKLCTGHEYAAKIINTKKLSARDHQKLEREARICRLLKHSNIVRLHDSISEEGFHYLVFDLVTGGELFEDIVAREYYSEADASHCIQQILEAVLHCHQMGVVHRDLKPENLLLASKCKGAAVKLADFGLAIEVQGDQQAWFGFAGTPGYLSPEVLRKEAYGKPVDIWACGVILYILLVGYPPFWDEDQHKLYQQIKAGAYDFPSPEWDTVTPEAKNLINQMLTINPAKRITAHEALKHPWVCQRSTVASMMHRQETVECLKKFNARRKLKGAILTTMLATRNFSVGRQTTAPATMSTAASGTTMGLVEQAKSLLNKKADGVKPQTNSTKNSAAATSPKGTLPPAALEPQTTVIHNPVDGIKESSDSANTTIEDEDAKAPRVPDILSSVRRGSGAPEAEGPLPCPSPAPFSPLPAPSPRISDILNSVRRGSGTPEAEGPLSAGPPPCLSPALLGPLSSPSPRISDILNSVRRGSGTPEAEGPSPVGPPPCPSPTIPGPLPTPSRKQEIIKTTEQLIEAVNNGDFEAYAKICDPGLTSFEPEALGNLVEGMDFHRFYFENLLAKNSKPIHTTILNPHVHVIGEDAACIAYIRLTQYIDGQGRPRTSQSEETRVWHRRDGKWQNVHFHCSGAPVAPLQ
Description: Inhibition of human CAMK2 beta catalytic domain expressed in baculovirus assessed as substrate phosphorylation using fluorescence-labelled peptides as substrate at 0.1 uM after 90 mins by microfluidic peptide phosphorylation assay

[7] = target: T1, Serine/threonine-protein kinase D1 (Homo sapiens) (UniProt Q15139); experiment: Inhibition of human full length PKD1 expressed in baculovirus assessed as substrate phosphorylation using fluorescence-labelled peptides as substrate at 9 uM after 90 mins by microfluidic peptide phosphorylation assay
T1 sequence (whole entry): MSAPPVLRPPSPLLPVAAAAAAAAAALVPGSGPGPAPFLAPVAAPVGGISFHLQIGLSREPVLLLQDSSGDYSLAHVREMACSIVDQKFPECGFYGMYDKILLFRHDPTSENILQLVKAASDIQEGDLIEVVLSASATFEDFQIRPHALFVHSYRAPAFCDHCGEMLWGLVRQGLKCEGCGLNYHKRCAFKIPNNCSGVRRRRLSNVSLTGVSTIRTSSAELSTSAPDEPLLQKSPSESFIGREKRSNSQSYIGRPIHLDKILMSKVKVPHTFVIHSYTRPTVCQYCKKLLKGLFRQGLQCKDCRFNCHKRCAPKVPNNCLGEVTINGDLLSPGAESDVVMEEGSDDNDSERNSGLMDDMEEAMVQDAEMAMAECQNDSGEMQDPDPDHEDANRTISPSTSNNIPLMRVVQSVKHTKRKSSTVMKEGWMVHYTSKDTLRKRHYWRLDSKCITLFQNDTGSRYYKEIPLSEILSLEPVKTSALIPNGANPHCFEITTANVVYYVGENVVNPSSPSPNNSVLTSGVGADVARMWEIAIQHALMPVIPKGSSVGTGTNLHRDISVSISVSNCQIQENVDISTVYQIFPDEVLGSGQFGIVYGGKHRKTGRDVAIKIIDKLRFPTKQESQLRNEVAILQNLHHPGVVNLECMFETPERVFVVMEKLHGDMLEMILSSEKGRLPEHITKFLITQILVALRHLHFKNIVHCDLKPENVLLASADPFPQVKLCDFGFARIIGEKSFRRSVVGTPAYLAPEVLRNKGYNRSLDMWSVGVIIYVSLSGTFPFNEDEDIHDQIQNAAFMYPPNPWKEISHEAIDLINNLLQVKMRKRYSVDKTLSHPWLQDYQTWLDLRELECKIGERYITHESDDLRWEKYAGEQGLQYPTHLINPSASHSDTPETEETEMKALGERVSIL

[8] = target: Protein kinase C gamma type (Homo sapiens) (UniProt P05129); experiment: Inhibition of human truncated PKC gamma expressed in baculovirus assessed as substrate phosphorylation using fluorescence-labelled peptides as substrate at 9 uM after 90 mins by microfluidic peptide phosphorylation assay
[9] = target: Rho-associated protein kinase 2 (Homo sapiens) (UniProt O75116); experiment: Inhibition of human ROCK2 catalytic domain expressed in baculovirus assessed as substrate phosphorylation using fluorescence-labelled peptides as substrate at 95 uM after 90 mins by microfluidic peptide phosphorylation assay
Rho-associated protein kinase 2 (Homo sapiens), sequence (O75116 whole entry, looked up, the tested form may be a part): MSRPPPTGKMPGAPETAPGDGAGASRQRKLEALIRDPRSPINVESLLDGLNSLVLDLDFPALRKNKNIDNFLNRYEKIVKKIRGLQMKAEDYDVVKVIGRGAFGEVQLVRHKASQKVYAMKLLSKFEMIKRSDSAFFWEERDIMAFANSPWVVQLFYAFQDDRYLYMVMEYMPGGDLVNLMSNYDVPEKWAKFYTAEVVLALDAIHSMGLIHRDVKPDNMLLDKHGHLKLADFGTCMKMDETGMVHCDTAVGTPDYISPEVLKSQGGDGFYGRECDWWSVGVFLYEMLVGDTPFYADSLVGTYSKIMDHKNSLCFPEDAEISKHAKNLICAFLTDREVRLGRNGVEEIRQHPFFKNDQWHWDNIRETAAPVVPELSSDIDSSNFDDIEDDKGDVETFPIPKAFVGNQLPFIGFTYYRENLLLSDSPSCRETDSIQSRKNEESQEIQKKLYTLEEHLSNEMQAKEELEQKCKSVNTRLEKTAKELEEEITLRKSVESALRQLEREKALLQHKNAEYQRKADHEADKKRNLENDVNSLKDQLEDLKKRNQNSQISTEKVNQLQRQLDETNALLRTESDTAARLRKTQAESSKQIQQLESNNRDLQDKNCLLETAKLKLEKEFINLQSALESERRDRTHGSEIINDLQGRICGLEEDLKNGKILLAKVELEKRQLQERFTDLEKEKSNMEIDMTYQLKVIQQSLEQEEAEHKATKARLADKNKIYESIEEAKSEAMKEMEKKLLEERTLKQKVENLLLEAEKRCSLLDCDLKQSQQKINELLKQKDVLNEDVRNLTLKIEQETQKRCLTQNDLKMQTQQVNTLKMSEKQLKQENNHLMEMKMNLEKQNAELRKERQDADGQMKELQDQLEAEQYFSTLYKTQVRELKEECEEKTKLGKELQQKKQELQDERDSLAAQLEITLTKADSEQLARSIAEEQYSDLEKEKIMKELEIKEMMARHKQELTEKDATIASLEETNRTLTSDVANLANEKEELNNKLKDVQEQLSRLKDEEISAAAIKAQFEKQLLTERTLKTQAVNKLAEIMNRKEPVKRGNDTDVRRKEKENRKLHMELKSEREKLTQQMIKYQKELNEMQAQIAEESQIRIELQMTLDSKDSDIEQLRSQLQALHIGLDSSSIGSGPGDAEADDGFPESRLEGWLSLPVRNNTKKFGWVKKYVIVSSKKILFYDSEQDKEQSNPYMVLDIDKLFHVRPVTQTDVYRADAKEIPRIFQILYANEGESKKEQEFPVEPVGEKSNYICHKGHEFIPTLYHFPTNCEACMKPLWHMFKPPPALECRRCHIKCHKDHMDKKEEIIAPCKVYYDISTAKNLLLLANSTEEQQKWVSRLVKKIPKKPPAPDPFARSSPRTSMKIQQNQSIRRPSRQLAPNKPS

[10] = target: T2, Protein kinase C epsilon type (Homo sapiens) (UniProt Q02156); experiment: Inhibition of human truncated PKC epsilon expressed in baculovirus assessed as substrate phosphorylation using fluorescence-labelled peptides as substrate at 95 uM after 90 mins by microfluidic peptide phosphorylation assay
T2 sequence (whole entry): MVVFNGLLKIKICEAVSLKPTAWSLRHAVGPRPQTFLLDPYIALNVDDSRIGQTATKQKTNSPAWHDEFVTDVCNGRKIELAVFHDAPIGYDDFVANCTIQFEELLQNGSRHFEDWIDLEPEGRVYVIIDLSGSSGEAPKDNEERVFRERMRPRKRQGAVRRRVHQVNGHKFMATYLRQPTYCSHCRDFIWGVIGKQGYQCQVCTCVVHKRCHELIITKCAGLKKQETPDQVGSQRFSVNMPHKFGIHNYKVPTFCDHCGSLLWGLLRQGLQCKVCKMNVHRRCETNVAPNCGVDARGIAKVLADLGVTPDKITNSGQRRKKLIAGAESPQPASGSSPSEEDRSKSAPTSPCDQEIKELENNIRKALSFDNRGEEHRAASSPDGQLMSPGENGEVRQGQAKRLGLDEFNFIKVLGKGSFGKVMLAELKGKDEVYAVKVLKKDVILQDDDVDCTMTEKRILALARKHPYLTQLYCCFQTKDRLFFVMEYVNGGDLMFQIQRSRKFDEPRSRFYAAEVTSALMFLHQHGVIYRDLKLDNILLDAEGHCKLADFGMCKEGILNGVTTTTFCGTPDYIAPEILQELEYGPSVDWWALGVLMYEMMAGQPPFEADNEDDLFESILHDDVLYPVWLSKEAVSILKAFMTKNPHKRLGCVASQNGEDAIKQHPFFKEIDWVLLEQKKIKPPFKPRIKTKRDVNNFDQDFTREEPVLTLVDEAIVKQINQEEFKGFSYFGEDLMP

[11] = target: Calcium/calmodulin-dependent protein kinase type II subunit gamma (Homo sapiens) (UniProt Q13555); experiment: Inhibition of human CAMK2 gamma catalytic domain expressed in baculovirus assessed as substrate phosphorylation using fluorescence-labelled peptides as substrate at 8 uM after 90 mins by microfluidic peptide phosphorylation assay
Calcium/calmodulin-dependent protein kinase type II subunit gamma (Homo sapiens), sequence (Q13555 whole entry, the tested form may be a part): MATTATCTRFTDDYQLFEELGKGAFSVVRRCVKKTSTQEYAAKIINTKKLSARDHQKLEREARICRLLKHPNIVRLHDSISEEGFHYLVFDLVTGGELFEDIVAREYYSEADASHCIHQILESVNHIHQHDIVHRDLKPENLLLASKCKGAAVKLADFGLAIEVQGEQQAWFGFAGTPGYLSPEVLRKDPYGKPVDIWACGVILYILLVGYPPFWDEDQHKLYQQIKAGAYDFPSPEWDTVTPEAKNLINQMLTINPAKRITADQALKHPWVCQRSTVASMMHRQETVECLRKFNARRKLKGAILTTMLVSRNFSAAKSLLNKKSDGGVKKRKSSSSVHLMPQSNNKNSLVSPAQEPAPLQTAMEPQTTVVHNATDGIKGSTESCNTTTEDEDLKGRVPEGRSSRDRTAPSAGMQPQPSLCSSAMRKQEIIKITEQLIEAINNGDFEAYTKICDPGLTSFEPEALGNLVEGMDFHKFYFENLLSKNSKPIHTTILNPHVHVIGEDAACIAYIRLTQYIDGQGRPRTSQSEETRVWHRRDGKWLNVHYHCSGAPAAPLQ

Tyrosine-protein kinase HCK (Homo sapiens), sequence (P08631 2-526 limits assumed): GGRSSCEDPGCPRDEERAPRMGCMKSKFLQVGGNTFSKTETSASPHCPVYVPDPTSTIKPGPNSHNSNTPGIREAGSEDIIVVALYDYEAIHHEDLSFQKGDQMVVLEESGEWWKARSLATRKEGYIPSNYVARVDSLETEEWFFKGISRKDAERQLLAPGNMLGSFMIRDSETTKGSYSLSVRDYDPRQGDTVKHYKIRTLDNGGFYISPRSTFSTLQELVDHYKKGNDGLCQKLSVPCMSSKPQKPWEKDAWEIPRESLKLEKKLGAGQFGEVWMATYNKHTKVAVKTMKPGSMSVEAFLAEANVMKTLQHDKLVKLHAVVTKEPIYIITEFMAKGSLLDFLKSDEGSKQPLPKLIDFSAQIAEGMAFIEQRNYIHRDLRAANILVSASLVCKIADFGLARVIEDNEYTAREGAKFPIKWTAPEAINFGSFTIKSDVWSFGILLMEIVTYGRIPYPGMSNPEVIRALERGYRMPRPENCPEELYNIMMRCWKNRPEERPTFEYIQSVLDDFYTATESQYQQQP

Q: For `NC1(Cc2ccc(Cl)cc2)CCN(c2ncnc3[nH]ccc23)CC1`, which inhibition [1] is on record?
A: Its inhibition is 7%.

Q: `c1nc(N2CCOCC2)c2nc[nH]c2n1` was tested. Which inhibition [2] did it give?
A: Its inhibition is 8%.

Q: Which inhibition [3] does the source give for `COC(=O)c1cnc(Nc2cnc(C#N)cn2)cc1NCC1CCNCC1` here?
A: Its inhibition is 1.5%.

Q: What about the inhibition [4] of the same compound?
A: The inhibition was 8%.

Q: What does the source list for `C[C@H](CN(C)C)Oc1nc(Nc2cc3cccc(Cl)c3cn2)cnc1C#N`?
A: inhibition [5]: 0%; inhibition [6]: 0%

Q: What does the source list for `NCC1CN(c2ncnc3[nH]c4cnccc4c23)CCO1` (stereo unspecified)?
A: inhibition [7]: 76%; inhibition [8]: 34.5%

Q: What does the source list for `NCCc1ccc(-c2ncnc3[nH]cnc23)cc1`?
A: inhibition [9]: 93.5%; inhibition [10]: 49%

Q: For `NCC1CCN(c2ncnc3[nH]ccc23)CC1`, which inhibition [11] is on record?
A: Its inhibition is 20.5%.
